Like-named read-outs stand apart in the source and are kept apart here. Starred links: 1 amine or outer side, 2 acyl side, 3 side chain; linkers in the order of their positions; H or OH if unused. Non-standard residues stand in square brackets, D forms with d. Groups on a side chain read outwards from the residue. No end group written: not given here. *: point of attachment. C18 diacid = O=C(O)CCCCCCCCCCCCCCCCC(=O)*; γGlu = O=C(O)[C@H](CCC(=O)[*:2])N[*:1]; αMe4Pal = C[C@](N)(Cc1ccncc1)C(=O)O; αMeY = C[C@](N)(Cc1ccc(O)cc1)C(=O)O; 4Pal = N[C@@H](Cc1ccncc1)C(=O)O; αMeL = CC(C)C[C@](C)(N)C(=O)O; Orn = NCCC[C@H](N)C(=O)O; AEEA = NCCOCCOCC(=O)O; Aib = CC(C)(N)C(=O)O
Key:
Format in all cases: cell-based
hGIPR [1] = target: T1, hGIPR (Homo sapiens, UniProt P48546); test: Functional cAMP activity in the presence of 1% HSA
T1 sequence (P48546 22-466): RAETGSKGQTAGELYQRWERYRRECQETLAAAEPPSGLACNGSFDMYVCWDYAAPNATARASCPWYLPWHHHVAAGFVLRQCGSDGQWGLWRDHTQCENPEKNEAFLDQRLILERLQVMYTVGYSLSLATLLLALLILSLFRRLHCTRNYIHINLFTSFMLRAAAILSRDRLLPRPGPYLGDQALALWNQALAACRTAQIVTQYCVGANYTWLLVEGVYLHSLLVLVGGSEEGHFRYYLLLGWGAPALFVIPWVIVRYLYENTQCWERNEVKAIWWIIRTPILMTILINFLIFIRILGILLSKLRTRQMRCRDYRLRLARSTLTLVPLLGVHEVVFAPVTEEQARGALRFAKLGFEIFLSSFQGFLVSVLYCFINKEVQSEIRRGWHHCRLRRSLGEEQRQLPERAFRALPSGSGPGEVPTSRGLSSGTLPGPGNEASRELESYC

hGLP-1R [2] = target: T2, hGLP-1R (Homo sapiens, UniProt P43220); test: Functional cAMP activity in the presence of 1% HSA
T2 sequence (P43220 24-463): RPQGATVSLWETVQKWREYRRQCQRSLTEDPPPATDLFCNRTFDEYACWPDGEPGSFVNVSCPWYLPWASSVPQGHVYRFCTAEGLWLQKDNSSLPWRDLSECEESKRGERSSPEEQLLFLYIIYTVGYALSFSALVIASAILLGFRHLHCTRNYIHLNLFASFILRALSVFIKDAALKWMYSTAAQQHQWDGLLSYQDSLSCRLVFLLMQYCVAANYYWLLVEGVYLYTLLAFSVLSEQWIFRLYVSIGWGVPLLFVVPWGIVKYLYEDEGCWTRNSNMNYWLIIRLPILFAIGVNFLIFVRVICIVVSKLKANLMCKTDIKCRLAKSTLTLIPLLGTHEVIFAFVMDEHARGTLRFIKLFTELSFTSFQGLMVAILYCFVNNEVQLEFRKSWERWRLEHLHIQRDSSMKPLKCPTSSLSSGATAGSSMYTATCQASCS

human GcgR = human GcgR (Homo sapiens, UniProt P47871); test: Functional cAMP activity in the presence of 1% HSA
human GcgR, sequence (P47871 26-477): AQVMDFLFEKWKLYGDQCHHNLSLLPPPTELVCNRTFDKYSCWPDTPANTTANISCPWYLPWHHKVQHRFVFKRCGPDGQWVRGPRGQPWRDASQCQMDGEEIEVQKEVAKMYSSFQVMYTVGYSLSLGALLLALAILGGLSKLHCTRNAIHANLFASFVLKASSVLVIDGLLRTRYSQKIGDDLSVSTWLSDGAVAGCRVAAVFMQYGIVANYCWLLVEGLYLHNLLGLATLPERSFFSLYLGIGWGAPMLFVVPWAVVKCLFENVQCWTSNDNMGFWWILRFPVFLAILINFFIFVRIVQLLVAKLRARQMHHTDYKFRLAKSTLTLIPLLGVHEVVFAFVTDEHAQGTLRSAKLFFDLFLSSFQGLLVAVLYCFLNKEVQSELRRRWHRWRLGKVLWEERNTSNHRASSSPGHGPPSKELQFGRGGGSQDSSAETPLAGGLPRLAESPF

hGIPR [3] = target: T1, hGIPR; test: Functional cAMP activation in the presence of 0.1% casein (no HSA);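 for Relative cAMP EC50, hGIPR: intracellular cAMP rise after 30 min at 37 °C read by HTRF against a standard curve, scaled between buffer alone (0%) and top control ligand concentration (100%), four-parameter fit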;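 for Relative cAMP EC50, hGLP-1R: intracellular cAMP rise after 30 min at 37 °C read by HTRF, normalized between buffer only (0%) and maximal control ligand (100%), four-parameter variable-slope fit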;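 for Relative cAMP EC50, hGcgR: intracellular cAMP rise after 30 min at 37 °C, read by HTRF against a cAMP standard curve, scaled from buffer only (0%) to maximal control ligand response (100%)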
hGLP-1R [4] = target: T2, hGLP-1R; test: as above
hGcgR = hGcgR (Homo sapiens, UniProt P47871); test: as above;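 note: intracellular cAMP rise after 30 min at 37 °C, read by HTRF against a cAMP standard curve, scaled from buffer only (0%) to maximal control ligand response (100%)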
hGcgR, sequence (P47871 26-477): as above
Experimental: After a 30-minute incubation at 37° C., the resulting increase in intracellular cAMP is quantitatively determined using the CisBio CAMP Dynamic 2 HTRF Assay Kit (62AM4PEJ). Briefly, cAMP levels within the cell are detected by adding the cAMP-d2 conjugate in cell lysis buffer followed by the antibody anti-cAMP-Eu^3+-Cryptate, also in cell lysis buffer.
Intracellular cAMP levels are determined by extrapolation using a standard curve. Dose response curves of compounds are plotted as the percentage of stimulation normalized to minimum (buffer only) and maximum (maximum concentration of each control ligand) values and analyzed using a four parameter non-linear regression fit with a variable slope (Genedata Screener 13). EC50 is the concentration of compound causing half-maximal simulation in a dose response curve. Each relative EC50 value for the Geometric mean calculation is determined from a curve fitting.

human GLP1-R = human GLP1-R (Homo sapiens, UniProt P43220); test: GLP1-R internalization assay in HEK293 cells; settings: for Internalization % TOP: normalized to maximum concentration of GLP-1 (100%)
human GLP1-R, sequence (P43220 24-463): as the sequence (P43220 24-463) above

[5] = read-out: cAMP Rel EC50, hGLP-1R
[6] = in the presence of 0.1% casein (no HSA), geometric mean, read-out: Relative cAMP EC50, hGIPR
[7] = in the presence of 0.1% casein (no HSA), geometric mean, read-out: Relative cAMP EC50, hGLP-1R
[8] = in the presence of 0.1% casein (no HSA), geometric mean, read-out: Relative cAMP EC50, hGcgR
[9] = HEK293 cells expressing SNAP-GLP-1R, read-out: GLP1R Internalization EC50

## H-Y[Aib]QGTFTSD[4Pal]SK[αMeL]LDKK([AEEA-γGlu-C18 diacid])AQ[Aib]AFIEYLIE[Aib]GESSGAPPPSGS-NH2 [Example 280]
hGIPR [1]; read-out: cAMP Rel EC50, hGIPR
  EC50: 15.6 nM
hGLP-1R [2]; [5]
  EC50: 171 nM
Human GcgR; read-out: cAMP Rel EC50, hGcgR
  EC50: 1600 nM
hGIPR [3]; [6]
  EC50: 0.105 nM
hGLP-1R [4]; [7]
  EC50: 0.95 nM
hGcgR; [8]
  EC50: 8.63 nM
Human GLP1-R; [9]
  EC50: 39.4 nM
Human GLP1-R
  Internalization % TOP: 74.9%

## H-Y[Aib]QGTFTSDFS[Orn][αMeL]LDKK([AEEA-AEEA-γGlu-C18 diacid])AQ[Aib]AFIEYLLE[Aib]GPSSGEPPPSGS-NH2 [Example 166]
hGIPR [1]; read-out: cAMP Rel EC50, hGIPR
  EC50: 21 nM
hGLP-1R [2]; [5]
  EC50: 1500 nM
Human GcgR; read-out: cAMP Rel EC50, hGcgR
  EC50: 724 nM
hGIPR [3]; [6]
  EC50: 0.118 nM
hGLP-1R [4]; [7]
  EC50: 6.96 nM
hGcgR; [8]
  EC50: 3.82 nM
Human GLP1-R; [9]
  EC50: 74.6 nM
Human GLP1-R
  Internalization % TOP: 44.2%

## CC[C@H](C)[C@H](NC(=O)[C@H](Cc1ccccc1)NC(=O)[C@H](C)NC(=O)[C@](C)(Cc1ccncc1)NC(=O)[C@H](CCC(N)=O)NC(=O)[C@H](C)NC(=O)[C@H](CCCCNC(=O)COCCOCCNC(=O)CC[C@H](NC(=O)CCCCCCCCCCCCCCCCC(=O)O)C(=O)O)NC(=O)[C@H](CCCCN)NC(=O)[C@H](CC(=O)O)NC(=O)[C@H](CC(C)C)NC(=O)[C@](C)(CC(C)C)NC(=O)[C@H](CCCNC(=N)N)NC(=O)[C@H](CO)NC(=O)[C@H](Cc1ccccc1)NC(=O)[C@H](CC(=O)O)NC(=O)[C@H](CO)NC(=O)[C@@H](NC(=O)[C@H](Cc1ccccc1)NC(=O)[C@@H](NC(=O)CNC(=O)[C@H](CCC(N)=O)NC(=O)C(C)(C)NC(=O)[C@@H](N)Cc1ccc(O)cc1)[C@@H](C)O)[C@@H](C)O)C(=O)N[C@@H](CCC(=O)O)C(=O)N[C@@H](Cc1ccc(O)cc1)C(=O)N[C@@H](CC(C)C)C(=O)N[C@H](C(=O)N[C@@H](CCC(=O)O)C(=O)NC(C)(C)C(=O)NCC(=O)N[C@@H](CCC(=O)O)C(=O)N[C@@H](CO)C(=O)N[C@@H](CO)C(=O)NCC(=O)N[C@@H](C)C(=O)N1CCC[C@H]1C(=O)N1CCC[C@H]1C(=O)N1CCC[C@H]1C(=O)N[C@@H](CO)C(=O)NCC(=O)N[C@@H](CO)C(N)=O)[C@@H](C)CC [Example 230]
hGIPR [1]
  EC50: 21.6 nM
hGLP-1R [2]
  EC50: 199 nM
Human GcgR
  EC50: 388 nM
hGIPR [3]
  EC50: 0.0909 nM
hGLP-1R [4]
  EC50: 0.937 nM
hGcgR
  EC50: 1.61 nM
Human GLP1-R
  EC50: 34.4 nM
  Internalization % TOP: 31.2%

## H-Y[Aib]QGTFTSDYSQ[αMeL]LDKK([AEEA-γGlu-C18 diacid])AQ[Aib]AFIEYLLEGGESSGAPPPSGS-NH2 [Example 362]
hGIPR [1]; read-out: cAMP Rel EC50, hGIPR
  EC50: 38.7 nM
hGLP-1R [2]; [5]
  EC50: 450 nM
Human GcgR; read-out: cAMP Rel EC50, hGcgR
  EC50: 1450 nM
hGIPR [3]; [6]
  EC50: 0.262 nM
hGLP-1R [4]; [7]
  EC50: 1.77 nM
hGcgR; [8]
  EC50: 6.04 nM
Human GLP1-R; [9]
  EC50: 22.8 nM
Human GLP1-R
  Internalization % TOP: 77.5%

## H-Y[Aib]QGTFTSDFSK[αMeL]LDKK([γGlu-γGlu-C18 diacid])AQ[Aib]AFIEYLLEGGPSSGAPPPSEG-NH2 [Example 58]
hGIPR [1]; read-out: cAMP Rel EC50, hGIPR
  EC50: 3.75 nM
hGLP-1R [2]; [5]
  EC50: 20.7 nM
Human GcgR; read-out: cAMP Rel EC50, hGcgR
  EC50: 115 nM
hGIPR [3]; [6]
  EC50: 0.175 nM
hGLP-1R [4]; [7]
  EC50: 2.93 nM
hGcgR; [8]
  EC50: 4.86 nM
Human GLP1-R; [9]
  EC50: 56.2 nM
Human GLP1-R
  Internalization % TOP: 78.1%

## H-Y[Aib]QGTFTSDFS[Orn][αMeL]LDKK([AEEA-γGlu-C18 diacid])AQ[Aib]AFIEWLLEGGPSSGAPPPSGS-NH2 [Example 168]
hGIPR [1]; read-out: cAMP Rel EC50, hGIPR
  EC50: 31.9 nM
hGLP-1R [2]; [5]
  EC50: 281 nM
Human GcgR; read-out: cAMP Rel EC50, hGcgR
  EC50: 1270 nM
hGIPR [3]; [6]
  EC50: 0.233 nM
hGLP-1R [4]; [7]
  EC50: 2.44 nM
hGcgR; [8]
  EC50: 5.54 nM
Human GLP1-R; [9]
  EC50: 74.8 nM
Human GLP1-R
  Internalization % TOP: 38.7%

## H-Y[Aib]QGTFTSDFS[Orn][αMeL]LDKK([AEEA-AEEA-γGlu-C18 diacid])AQ[Aib]AFIEYLLE[dA]GPSSGHPPPSGS-NH2 [Example 253]
hGIPR [1]; read-out: cAMP Rel EC50, hGIPR
  EC50: 26.6 nM
hGLP-1R [2]; [5]
  EC50: 355 nM
Human GcgR; read-out: cAMP Rel EC50, hGcgR
  EC50: 963 nM
hGIPR [3]; [6]
  EC50: 0.115 nM
hGLP-1R [4]; [7]
  EC50: 2.2 nM
hGcgR; [8]
  EC50: 6.62 nM
Human GLP1-R; [9]
  EC50: 81.6 nM
Human GLP1-R
  Internalization % TOP: 55.2%

## Y[Aib]QGTFTSD[4Pal]SQ[αMeL]LD[Orn]K([γGlu-γGlu-C18 diacid])AQ[αMe4Pal]QFIE[αMeY]LIEGGPSSGEPPPSGSEE-NH2 [Example 1026]
hGIPR [1]; read-out: cAMP Rel EC50, hGIPR
  EC50: 61.3 nM
hGLP-1R [2]; [5]
  EC50: 299 nM
Human GcgR; read-out: cAMP Rel EC50, hGcgR
  EC50: 2080 nM
hGIPR [3]; [6]
  EC50: 0.308 nM
hGLP-1R [4]; [7]
  EC50: 1.77 nM
hGcgR; [8]
  EC50: 6.32 nM
Human GLP1-R; [9]
  EC50: 47.4 nM
Human GLP1-R
  Internalization % TOP: 80%

## H-Y[Aib]QGTFTSDFS[Orn][αMeL]LDKK([AEEA-γGlu-C18 diacid])AQ[Aib]AFIEYLLEGGHSSGAPPPGGS-NH2 [Example 162]
hGIPR [1]; read-out: cAMP Rel EC50, hGIPR
  EC50: 37.5 nM
hGLP-1R [2]; [5]
  EC50: 786 nM
Human GcgR; read-out: cAMP Rel EC50, hGcgR
  EC50: 558 nM
hGIPR [3]; [6]
  EC50: 0.222 nM
hGLP-1R [4]; [7]
  EC50: 4.72 nM
hGcgR; [8]
  EC50: 4.72 nM
Human GLP1-R; [9]
  EC50: 48.8 nM
Human GLP1-R
  Internalization % TOP: 44.8%

## Y[Aib]QGTFTSDFS[Orn][αMeL]LDKK([AEEA-AEEA-γGlu-C18 diacid])AQ[Aib]AFIEYLLE[dA]GPSSGEPPPSEG-NH2 [Example 116]
hGIPR [1]; read-out: cAMP Rel EC50, hGIPR
  EC50: 40.4 nM
hGLP-1R [2]; [5]
  EC50: 401 nM
Human GcgR; read-out: cAMP Rel EC50, hGcgR
  EC50: 882 nM
hGIPR [3]; [6]
  EC50: 0.382 nM
hGLP-1R [4]; [7]
  EC50: 7.83 nM
hGcgR; [8]
  EC50: 3.96 nM
Human GLP1-R; [9]
  EC50: 80.7 nM
Human GLP1-R
  Internalization % TOP: 46.2%

## H-Y[Aib]QGTFTSD[4Pal]S[Orn][αMeL]LDKK([AEEA-γGlu-C18 diacid])AQ[αMe4Pal]AFIEYLIE[Aib]GESSGAPPPSGE-NH2 [Example 222]
hGIPR [1]; read-out: cAMP Rel EC50, hGIPR
  EC50: 52.5 nM
hGLP-1R [2]; [5]
  EC50: 753 nM
Human GcgR; read-out: cAMP Rel EC50, hGcgR
  EC50: 440 nM
hGIPR [3]; [6]
  EC50: 0.228 nM
hGLP-1R [4]; [7]
  EC50: 3.64 nM
hGcgR; [8]
  EC50: 2.33 nM
Human GLP1-R; [9]
  EC50: 34.6 nM
Human GLP1-R
  Internalization % TOP: 52.4%

## H-Y[Aib]QGTFTSDFSQ[αMeL]LDKK([AEEA-γGlu-C18 diacid])AQ[αMe4Pal]AFIEYLIE[Aib]GESSGAPPPSGE-NH2 [Example 233]
hGIPR [1]
  EC50: 28.1 nM
hGLP-1R [2]
  EC50: 223 nM
Human GcgR
  EC50: 453 nM
hGIPR [3]
  EC50: 0.0884 nM
hGLP-1R [4]
  EC50: 0.874 nM
hGcgR
  EC50: 2.25 nM
Human GLP1-R
  EC50: 24.8 nM
  Internalization % TOP: 41.8%

## H-Y[Aib]QGTFTSD[4Pal]SR[αMeL]LDKK([AEEA-γGlu-C18 diacid])AQ[Aib]AFIEYLLAGGPSSGAPPPSGE-NH2 [Example 113]
hGIPR [1]; read-out: cAMP Rel EC50, hGIPR
  EC50: 32.3 nM
hGLP-1R [2]; [5]
  EC50: 467 nM
Human GcgR; read-out: cAMP Rel EC50, hGcgR
  EC50: 2090 nM
hGIPR [3]; [6]
  EC50: 0.24 nM
hGLP-1R [4]; [7]
  EC50: 3.93 nM
hGcgR; [8]
  EC50: 12 nM
Human GLP1-R; [9]
  EC50: 39.5 nM
Human GLP1-R
  Internalization % TOP: 64.6%

From patent US20240270821A1, “GIP/GLP1/GCG TRI-RECEPTOR AGONISTS AND USES THEREOF” (priority 2023, published 2024)
